Test results published in patent US12123017B2, “Composition and method for cultivation, expansion, preservation and/or cell pretreatment” (REGENERO S.A., priority 2017, dated 2024).

System: Umbilical cord derived mesenchymal stem cells
Experiment: Biopreservation of MSCs at 4° C. for three days (viability by trypan blue, adhesion, proliferation, migration)
Assay type: cell-based
Settings: 0.1 μM in CBS, P<0.01
Experimental: Approximately 200,000 umbilical cord derived mesenchymal stem cells were stored in 200 μl of commercial biopreservation solution (CBS) as a control and 200 μl of CBS supplemented with the medium supplement of the invention. The samples were kept at 4° C. for three days. Cells were resuspended in DMEM base, and viability was assessed by trypan blue exclusion assay. […] Cell adhesion was evaluated 24 hours after cells were seeded in 10 mm plates. […] Finally, the cells preserved with CBS proliferated less than those preserved in CBS with pterostilbene (FIG. 4D). Therefore, the solution of the invention improves the functionality of the cells after 3 days of biopreservation.

**Q.** For `COc1cc(/C=C/c2ccc(O)cc2)cc(OC)c1` [Pterostilbene], which “cell viability better compared to CBS alone” value is on record?
**A.** approximately 10%
